Values quoted from earlier work as cited in patent EP3728136B1 (Easymining Sweden AB, priority 2017, dated 2019).

Test system: biogas-producing bacteria
Conditions: concentration of free ammonia increased to 620 mg/l; Siles et al., 2010

N [ammonia]
gradual decrease of biogas production: 21%
